ChEMBL document CHEMBL5244206, “Recent encounters with atropisomerism in drug discovery” (Bioorg Med Chem Lett, 2018)
pKi: −log10 of the molar value.

Target: ALK tyrosine kinase receptor (Homo sapiens, UniProt Q9UM73, L1196M)
Experiment: Binding affinity to human recombinant ALK L1196M mutant (1093 to 1411 residues) assessed as inhibition constant using 5'FAM-KKSRGDYMTMQIG-CONH2 peptide as substrate in presence of ATP by micro-fluidic mobility shift assay

ALK tyrosine kinase receptor, sequence (Q9UM73 19-1620 L1196M limits assumed): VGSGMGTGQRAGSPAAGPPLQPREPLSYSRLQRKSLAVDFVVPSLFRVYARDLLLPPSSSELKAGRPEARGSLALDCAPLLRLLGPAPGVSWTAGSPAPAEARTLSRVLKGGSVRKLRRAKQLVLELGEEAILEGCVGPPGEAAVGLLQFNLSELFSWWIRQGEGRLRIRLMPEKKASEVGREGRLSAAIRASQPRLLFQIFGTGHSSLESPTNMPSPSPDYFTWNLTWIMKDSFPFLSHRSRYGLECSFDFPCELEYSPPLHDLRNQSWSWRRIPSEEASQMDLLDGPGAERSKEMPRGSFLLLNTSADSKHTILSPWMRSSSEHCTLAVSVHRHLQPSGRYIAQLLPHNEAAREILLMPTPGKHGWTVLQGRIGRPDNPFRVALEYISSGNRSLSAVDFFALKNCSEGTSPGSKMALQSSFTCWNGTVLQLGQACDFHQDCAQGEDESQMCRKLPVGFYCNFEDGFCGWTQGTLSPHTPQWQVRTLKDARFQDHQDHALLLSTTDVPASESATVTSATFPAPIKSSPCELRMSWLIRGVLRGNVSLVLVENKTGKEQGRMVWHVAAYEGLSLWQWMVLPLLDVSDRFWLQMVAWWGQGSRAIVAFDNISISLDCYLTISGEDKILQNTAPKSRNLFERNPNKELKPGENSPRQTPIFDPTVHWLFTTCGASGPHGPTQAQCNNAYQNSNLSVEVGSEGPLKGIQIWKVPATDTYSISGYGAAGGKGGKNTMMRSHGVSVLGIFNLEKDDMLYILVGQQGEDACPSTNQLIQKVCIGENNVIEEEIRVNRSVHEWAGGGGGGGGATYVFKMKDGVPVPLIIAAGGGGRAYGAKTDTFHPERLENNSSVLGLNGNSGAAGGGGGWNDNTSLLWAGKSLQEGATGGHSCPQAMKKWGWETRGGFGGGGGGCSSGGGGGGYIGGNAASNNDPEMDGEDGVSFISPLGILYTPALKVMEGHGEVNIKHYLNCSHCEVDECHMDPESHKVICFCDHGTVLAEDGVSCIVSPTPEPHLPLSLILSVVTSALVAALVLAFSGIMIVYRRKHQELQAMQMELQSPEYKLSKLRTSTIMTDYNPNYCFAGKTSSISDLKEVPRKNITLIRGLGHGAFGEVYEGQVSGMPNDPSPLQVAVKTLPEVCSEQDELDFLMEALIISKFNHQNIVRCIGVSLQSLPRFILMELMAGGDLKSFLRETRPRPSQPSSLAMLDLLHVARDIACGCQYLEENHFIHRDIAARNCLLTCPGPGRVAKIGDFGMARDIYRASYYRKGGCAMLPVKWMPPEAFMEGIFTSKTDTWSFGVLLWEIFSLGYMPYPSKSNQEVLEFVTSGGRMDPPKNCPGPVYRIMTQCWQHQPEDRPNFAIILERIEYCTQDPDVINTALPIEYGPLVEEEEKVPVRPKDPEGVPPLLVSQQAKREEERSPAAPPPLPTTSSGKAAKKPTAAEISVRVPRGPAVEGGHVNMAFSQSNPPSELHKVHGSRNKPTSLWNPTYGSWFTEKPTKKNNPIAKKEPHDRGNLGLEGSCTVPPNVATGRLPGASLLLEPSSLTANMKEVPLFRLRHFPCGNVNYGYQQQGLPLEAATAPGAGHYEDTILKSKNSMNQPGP

Question: `CN1Cc2nn(C)c(C#N)c2-c2cnc(N)c(c2)OCc2cc(F)ccc2C1=O` was tested. Which pKi did it give?
Answer: The pKi was 6.56.
